Measured values taken from patent US7247440B2, “Method of screening preventives or remedies for obesity” (Takeda Pharmaceutical Company Limited, priority 2001, dated 2007).
Where a SMILES comes first, the peptide text is derived from it.

Molecular target: T1, GPR7 (Homo sapiens, UniProt P48145)
T1 construct: expressed in transfected cells; host or cells: CHO dhfr- cells, plasmid pAKKO-Human GPR7 (high-expression clones 7, 8, 14)
T1 sequence (P48145 1-328): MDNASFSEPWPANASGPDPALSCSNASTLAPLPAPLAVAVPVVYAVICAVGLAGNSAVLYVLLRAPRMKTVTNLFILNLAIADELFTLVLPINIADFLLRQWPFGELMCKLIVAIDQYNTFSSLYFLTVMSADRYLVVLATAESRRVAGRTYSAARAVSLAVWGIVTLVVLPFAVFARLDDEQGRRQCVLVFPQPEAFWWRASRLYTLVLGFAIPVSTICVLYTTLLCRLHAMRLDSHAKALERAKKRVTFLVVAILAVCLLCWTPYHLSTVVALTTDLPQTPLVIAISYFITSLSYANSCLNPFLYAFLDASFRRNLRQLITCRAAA
Test: GTPγS-binding promoting activity on GPR7-expressed CHO cell membrane fraction
Assay type: biochemical
Description: The [^35S]-guanosine 5′-(γ-thio)triphosphate (GTPγS) binding promoting activity on the GPR7-expressed CHO cell membrane fraction was assayed by the following procedures.
The GPR7-expressed CHO cell membrane fraction prepared by the method described in EXAMPLE 2 was diluted with a membrane dilution buffer (50 mM Tris-hydrochloride buffer (pH 7.4), 5 mM MgCl2, 150 mM NaCl, 1 μM GDP and 0.1% BSA) to prepare a cell membrane fraction solution for assay having a protein level of 30 μg/ml. To 200 μl of the cell membrane fraction solution for assay were added 2 μl of 50 nM [^35S]-guanosine 5′-(γ-thio)triphosphate (NEN Co.) and 2 μl of a sample solution in DMSO, which was adjusted to an appropriate concentration. The resulting mixture was kept warm at 25° C. for an hour. The mixture was filtrated through a filter. After the filter was washed twice with 1.5 ml of a wash buffer (50 mM Tris-hydrochloride buffer (pH 7.4), 5 mM MgCl2, 1 mM EDTA and 0.1% BSA), radioactivity of the filter was measured with a liquid scintillation counter.
Following the procedures described in 1) above, hGPR8L (1-23) or hGPR8L (1-30) were given to the GPR7-expressed CHO cell membrane fraction in various concentrations to assay for the GTPγS-binding promoting activity. […]

EC50 | Structure (SMILES)
> 10000 nM | CSCC[C@H](NC(=O)[C@H](CC(C)C)NC(=O)[C@H](CC(C)C)NC(=O)CNC(=O)[C@H](C)NC(=O)[C@H](C)NC(=O)[C@H](CCCNC(=N)N)NC(=O)CNC(=O)[C@@H](NC(=O)[C@@H](NC(=O)[C@H](Cc1c[nH]cn1)NC(=O)[C@H](Cc1ccc(O)cc1)NC(=O)[C@H](CCCNC(=N)N)NC(=O)[C@@H]1CCCN1C(=O)[C@H](CO)NC(=O)[C@H](C)NC(=O)[C@@H](NC(=O)[C@@H](N)Cc1c[nH]cn1)C(C)C)[C@@H](C)O)C(C)C)C(=O)NCC(=O)N[C@@H](CC(C)C)C(=O)O [hGPR8L(4–23)] (H-HVASPRYHTVGRAAGLLMGL-OH; C-terminus assumed)
> 10000 nM | CSCC[C@H](NC(=O)[C@H](CC(C)C)NC(=O)[C@H](CC(C)C)NC(=O)CNC(=O)[C@H](C)NC(=O)[C@H](C)NC(=O)[C@H](CCCNC(=N)N)NC(=O)CNC(=O)[C@@H](NC(=O)[C@@H](NC(=O)[C@H](Cc1c[nH]cn1)NC(=O)[C@H](Cc1ccc(O)cc1)NC(=O)[C@@H](N)CCCNC(=N)N)[C@@H](C)O)C(C)C)C(=O)NCC(=O)N[C@@H](CC(C)C)C(=O)O [hGPR8L(9–23), Arg-Tyr-His-Thr-Val-Gly-Arg-Ala-Ala-Gly-Leu-Leu-Met-Gly-Leu] (H-RYHTVGRAAGLLMGL-OH; C-terminus assumed)
